Measurements: publication PMC8909834, “An Orally Bioavailable and Highly Efficacious Inhibitor of CDK9/FLT3 for the Treatment of Acute Myeloid Leukemia” (Cancers, 2022)

Tested on: MV4-11 tumors
Assay: In vivo target engagement (western blot of tumor lysates)
Parameters: species or system mice
Conditions: 75 and 125 mg/kg orally for 5 days, 4 h post final dose
Experimental: Western blotting. Western blotting was performed as described previously. Briefly, cells were lysed after incubation with different concentrations of compounds or control (0.1% DMSO) at the indicated times, samples were denatured at 95 °C for 5 min, and proteins having different molecular weights within each sample were separated by electrophoresis (Bio-Rad, Hercules, CA, USA) on polyacrylamide gels (4–20%, Bio-Rad). Resolved proteins were electrophoretically transferred onto a PVDF membrane and blocked by incubating with 10% w/v non-fat powdered milk dissolved in 1 × Tris-buffered saline-tween 20 (TBST) for 1 h at room temperature prior to incubating overnight with primary antibodies at 4 °C with slight shaking. Chemiluminescence was detected with a ChemiDoc^TM gel imaging system after the membranes have been exposed to ECL substrates (GE Healthcare, PA, USA), and the Image Lab software (Bio-Rad) was used for image capture. […] Bands were quantified using ImageJ software (US National Institutes of Health, Bethesda, MD, USA). […]

Cc1cnc(N[C@H]2CC[C@H](N)CC2)nc1-c1cnc2ccc(-c3ccccc3)cn12 [CDDD11-8]
level of MCL1 in tumors: greatly reduced | phosphorylation of FLT3 at Tyr591 and STAT5 at Tyr 694 in tumors: reduced | phosphorylation of RNAPII at Ser2 and Ser5 in tumors: potently inhibited
